In PubChem BioAssay (NCI):
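Briefly, cells in 96-well plates were exposed to five compound concentrations for 48 h, and endpoints were estimated by linear interpolation. The concentration for 50% growth inhibition is given as GI50. TGI marks complete inhibition of growth.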 Where a SMILES comes first, the peptide text is derived from it. The star is where a group is joined. Cbz = O=C(OCc1ccccc1)*; Bn = c1ccc(C*)cc1

Legend:
Test in all cases: NCI anticancer screen, dose series, 48 h
CAKI-1 renal = system: CAKI-1 renal
IGROV1 ovarian = system: IGROV1 ovarian
A498 renal = system: A498 renal
NCI-H522 lung = system: NCI-H522 lung
HCT-116 colon = system: HCT-116 colon
EKVX NSCLC = system: EKVX NSCLC
A549 NSCLC = system: A549 NSCLC
CCRF-CEM leukemia = system: CCRF-CEM leukemia
SNB-19 CNS = system: SNB-19 CNS
SNB-75 CNS = system: SNB-75 CNS
HCT-15 colon = system: HCT-15 colon
RPMI-8226 leukemia = system: RPMI-8226 leukemia
MOLT-4 leukemia = system: MOLT-4 leukemia

SMILES | TGI (CAKI-1 renal) [µM] | TGI (IGROV1 ovarian) [µM] | TGI (A498 renal) [µM] | TGI (NCI-H522 lung) [µM] | TGI (HCT-116 colon) [µM] | TGI (EKVX NSCLC) [µM] | TGI (A549 NSCLC) [µM] | TGI (CCRF-CEM leukemia) [µM] | TGI (SNB-19 CNS) [µM] | TGI (SNB-75 CNS) [µM] | TGI (HCT-15 colon) [µM] | TGI (RPMI-8226 leukemia) [µM] | TGI (MOLT-4 leukemia) [µM] | GI50 (A498 renal) [µM] | GI50 (SNB-75 CNS) [µM] | GI50 (HCT-15 colon) [µM] | GI50 (RPMI-8226 leukemia) [µM] | GI50 (CAKI-1 renal) [µM] | GI50 (NCI-H522 lung) [µM] | GI50 (EKVX NSCLC) [µM]
O=C1c2cccc(O)c2C(=O)c2c(O)cccc21 | > 100 | > 100 | > 100 | > 100 | > 100 | > 100 | > 100 | > 100 | > 100 | > 100 | > 100 | > 100 | > 100 |  |  |  |  |  |  | 
CC1C[C@]2(C[C@@H](C)C(=O)O2)OC2CC3(C)C4CCC5C(C)(C)OC(=O)CC[C@@]56C[C@@]46CC[C@]3(C)C12 (some centres not stated) | > 100 | > 100 | > 100 |  | > 100 | > 100 | > 100 | > 100 | > 100 | > 100 | > 100 | > 100 | > 100 |  |  |  |  |  |  | 
C=CCOCCC(CC=C)C(=O)CC(=O)OC (configuration not stated) |  | > 100 | > 100 | > 100 | > 100 | > 100 | > 100 | > 100 | > 100 | > 100 | > 100 | > 100 | > 100 |  |  |  |  |  |  | 
COC(=O)C(Cc1ccc(O)cc1)NC(=O)C(COCc1ccccc1)NC(=O)OCc1ccccc1 (configuration not stated) (Cbz-Ser(Bn)-Tyr-OMe; configuration not given here) | 36.4 | 32.3 | 58 | 37.3 | 35.7 | 43.8 | 35.7 | > 100 | 31.2 | 29.9 | 33.6 | > 100 | > 100 |  |  |  |  |  |  | 
C1CSCCSCSCCS1 | > 100 | > 100 | > 100 | > 100 | > 100 | > 100 | > 100 |  | > 100 | > 100 | > 100 |  |  |  |  |  |  |  |  | 
c1ccc(-c2n(Cc3ccc4ccccc4c3)c3ccccc3[n+]2Cc2ccc3ccccc3c2)cc1 |  |  | 0.933 |  |  |  |  |  |  | 0.913 | 2.91 | 1.47 |  | < 0.043 | 0.184 | 1.39 | 0.208 |  |  | 
NC(=O)c1ccc([N+](=O)[O-])cc1 | > 100 | > 100 | > 100 | > 100 |  | > 100 | > 100 | > 100 | > 100 | > 100 | > 100 | > 100 | > 100 |  |  |  |  |  |  | 
NC(CCP(=O)(O)O)C(=O)O (configuration not stated) | > 100 | > 100 | > 100 | > 100 | > 100 | > 100 | > 100 | > 100 | > 100 |  | > 100 | > 100 | > 100 |  |  |  |  |  |  | 
CCn1c(=O)c(C(=O)O)c(Cl)c2cc3c(cc21)OCO3 | > 100 | > 100 | > 100 | > 100 | > 100 | > 100 | > 100 | > 100 | > 100 | > 100 | > 100 | > 100 | > 100 |  |  |  |  |  |  | 
O=C(Nc1ccc(Cl)cc1)c1cc([N+](=O)[O-])ccc1O | 24.4 | 69.5 | 11.2 | 5.85 | 20.8 | 31.3 | > 96.2 | 11 | > 49.2 | 20.2 | 28.6 | 10.2 | 10.5 |  |  |  |  |  |  | 
COc1ccc(N2C(=O)/C(=C\c3ccccc3)SC2c2cc(OC)c(OC)c(OC)c2)cc1 (configuration not stated) | > 100 |  | > 100 | > 100 | > 100 | > 100 | > 100 | > 100 | > 100 | 75.7 | > 100 |  | > 100 |  |  |  |  |  |  | 
COc1ccc(-c2oc3cc(OC(C)=O)cc(OC(C)=O)c3c(=O)c2OC)cc1 | 34.9 | 38 | 61.1 | 5.28 | 44.3 | 47.8 | 74.1 | 49.6 | 79.4 |  | > 100 | 38.3 | 68.4 |  |  |  |  |  |  | 
N=C(N)c1ccc(-c2ccc(-c3ccc4ccccc4c3)s2)s1 | 11.6 |  | 10.5 | 4.77 |  | 7.44 |  |  |  | 5.3 | 3.29 | 5.02 |  | 1.7 | 1.93 | 1.69 | 2.3 | 3.11 | 1.96 | 2.46
CS(=O)(=O)c1ccc2nc(-c3ccc(O)cc3)sc2c1 | 31.4 | 34.9 | 31.2 | 29.6 | 30.5 | 23.9 | 34.3 | > 100 | 36.2 |  | 31.7 | 35.7 | > 100 |  |  |  |  |  |  | 
CC(=O)OCC1OC(NC(=O)N(CCCl)N=O)C(OC(C)=O)C(OC(C)=O)C1OC(C)=O (configuration not stated) | > 100 | > 100 | > 100 | > 100 | > 100 | > 100 | > 100 | > 100 | > 100 | > 100 | > 100 | > 100 | > 31.6 |  |  |  |  |  |  | 
C[n+]1c2ccccc2c(CNCC(=O)O)c2ccccc21 | 1.84 | 22.6 | 7.43 | 0.307 | 1.3 | 12.3 | 13.1 |  | 22.2 | 20.9 | 4.94 | 1.52 | 0.811 |  |  |  |  |  |  | 
